From ChEMBL document CHEMBL1201862, “PubChem BioAssay data set” (2004)
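Assay format: 96-well plates, 48-hour exposure. GI50 = concentration required for 50% inhibition of growth.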 Activity calls are given as the source filed them. Cut-off read from the data, not from the text of the source: active = GI50 up to about 1.1 µM and inactive = higher.

Legend:
Assay in all cases: NCI anticancer screen, dose series, 48 h
786-0 = test system: 786-0
A498 = test system: A498
ACHN = test system: ACHN
CAKI-1 = test system: CAKI-1
COLO 205 = test system: COLO 205
DU-145 = test system: DU-145
HL-60 = test system: HL-60
K562 = test system: K562
KM12 = test system: KM12
MCF7 = test system: MCF7
MDA-MB-231 = test system: MDA-MB-231
NCI-H23 = test system: NCI-H23
RXF 393 = test system: RXF 393
SF-295 = test system: SF-295
SK-MEL-2 = test system: SK-MEL-2
SK-MEL-5 = test system: SK-MEL-5
SN12C = test system: SN12C
UO-31 = test system: UO-31
OVCAR-8 = test system: OVCAR-8
PC-3 = test system: PC-3

Measured: GI50

Cc1cc2c(cc1Cl)SC(NS(=O)(=O)c1ccc(Cl)cc1)=NS2(=O)=O
inactive: 786-0 > 100 µM | A498 30.4 µM | ACHN > 100 µM | CAKI-1 > 100 µM | COLO 205 > 100 µM | DU-145 83.9 µM | HL-60 > 100 µM | K562 41.9 µM | KM12 > 100 µM | MCF7 56.8 µM | MDA-MB-231 67.6 µM | NCI-H23 30.5 µM | RXF 393 13.6 µM | SF-295 23 µM | SK-MEL-2 54 µM | SK-MEL-5 46 µM | SN12C > 100 µM | UO-31 > 100 µM

CC(C)(C)OC(=O)NC(CCC(=O)OCc1ccccc1)C(=O)NCCCO (stereo not drawn)
inactive: 786-0 > 100 µM | A498 > 100 µM | ACHN > 100 µM | CAKI-1 > 100 µM | DU-145 > 100 µM | HL-60 > 100 µM | K562 > 100 µM | KM12 > 100 µM | MCF7 > 100 µM | MDA-MB-231 > 100 µM | NCI-H23 > 100 µM | OVCAR-8 > 100 µM | RXF 393 > 100 µM | SK-MEL-2 > 100 µM | SK-MEL-5 > 100 µM | SN12C > 100 µM | UO-31 > 100 µM

COC(=O)[C@H](Cc1c[nH]c2ccccc12)NP(=O)(O)OCC1C=CC(n2cc(C)c(=O)[nH]c2=O)O1 (stereo partly drawn)
inactive: 786-0 > 100 µM | A498 > 100 µM | CAKI-1 > 100 µM | COLO 205 > 100 µM | DU-145 > 100 µM | HL-60 > 100 µM | K562 > 100 µM | KM12 > 100 µM | MDA-MB-231 > 100 µM | NCI-H23 > 100 µM | OVCAR-8 > 100 µM | PC-3 > 100 µM | SK-MEL-2 > 100 µM | SK-MEL-5 > 100 µM | SN12C > 100 µM

COc1ccc2c(c1)CC[C@@H]1[C@@H]2CC[C@]2(C)C(=O)/C(=C/c3ccc(N(C)C)cc3)C[C@@H]12
inactive: 786-0 29.2 µM | A498 30.3 µM | ACHN 48.9 µM | CAKI-1 28.1 µM | COLO 205 > 100 µM | DU-145 > 100 µM | HL-60 > 100 µM | KM12 84.3 µM | MDA-MB-231 55.8 µM | NCI-H23 33 µM | PC-3 47.2 µM | RXF 393 27 µM | SF-295 40.2 µM | SK-MEL-2 24.9 µM | SK-MEL-5 73.1 µM | UO-31 98.9 µM

Cc1ccc(C2=C(C#N)C(=O)N3CCN=C3S2)cc1
inactive: 786-0 > 100 µM | ACHN 45.1 µM | CAKI-1 > 100 µM | COLO 205 > 100 µM | DU-145 > 100 µM | K562 58.2 µM | KM12 > 100 µM | MCF7 > 100 µM | MDA-MB-231 > 100 µM | NCI-H23 > 100 µM | OVCAR-8 > 100 µM | PC-3 > 100 µM | RXF 393 > 100 µM | SF-295 > 100 µM | SK-MEL-2 > 100 µM | SK-MEL-5 > 100 µM | SN12C > 100 µM | UO-31 > 100 µM

COC(=O)N1C2C(C[C@@]1(C)C(=O)OC)c1ccccc1N2S(=O)(=O)c1ccccc1 (stereo partly drawn)
inactive: 786-0 > 100 µM | ACHN > 100 µM | CAKI-1 > 100 µM | COLO 205 > 100 µM | DU-145 > 100 µM | HL-60 > 100 µM | K562 > 100 µM | KM12 > 100 µM | MCF7 > 100 µM | MDA-MB-231 > 100 µM | NCI-H23 > 100 µM | OVCAR-8 > 100 µM | PC-3 > 100 µM | RXF 393 > 100 µM | SF-295 > 100 µM | SK-MEL-2 > 100 µM | SK-MEL-5 > 100 µM | UO-31 > 100 µM

CNC(=O)N1CN(c2ccccc2)C2(CCN(CCCC(=O)c3ccc(F)cc3)CC2)C1=O
inactive: 786-0 26.1 µM | ACHN 11.1 µM | CAKI-1 24.8 µM | COLO 205 4.56 µM | DU-145 11.3 µM | HL-60 15.2 µM | K562 19.5 µM | KM12 20.9 µM | MCF7 3.62 µM | MDA-MB-231 25.2 µM | NCI-H23 23.4 µM | OVCAR-8 31.5 µM | PC-3 31.2 µM | RXF 393 20.5 µM | SF-295 16.8 µM | SK-MEL-5 11.8 µM | SN12C 21.4 µM | UO-31 7.08 µM

O=C(c1ccccc1)c1ccc(COc2ccc(C(c3c(O)c4ccccc4oc3=O)c3c(O)c4ccccc4oc3=O)cc2)cc1
inactive: 786-0 23.6 µM | ACHN 19.3 µM | CAKI-1 22.8 µM | COLO 205 20.2 µM | DU-145 59.8 µM | K562 19.9 µM | KM12 16.1 µM | MCF7 27.8 µM | MDA-MB-231 34.3 µM | NCI-H23 17.4 µM | OVCAR-8 17.2 µM | PC-3 18.3 µM | RXF 393 19 µM | SF-295 19.4 µM | SK-MEL-2 18.2 µM | SK-MEL-5 18.8 µM | SN12C 43.8 µM | UO-31 27.7 µM
